Results: patent US8299031B2, “Human semen enhancer of viral infection peptides (SEVI) and their use” (Viro Pharmaceuticals GmbH & Co. KG, priority 2006, dated 2012)
Where two headings read alike, the source gives them in different places. Ends that are not written are not given here.

What was measured:
SIVcpz-tan 1 = format: cell-based, SIV; conditions: CEMX174 5.25 M7 cells
HIV-1 particles = assay: Binding of viral particles to TZM-bl cells (cell-associated p24 ELISA); format: cell-based; conditions: 3 hs
Experimental: To further assess how SEVI might enhance HIV-1 infection we incubated TZM-bl cells for 3 hs with viral particles in the presence or absence of fibrilar PAP(248-286). Thereafter, unbound virus was removed by extensive washing and the amount of cell-associated p24 antigen was determined by ELISA. SEVI increased binding of HIV-1 to the target cells up to 8-fold in a dose-dependent manner (FIG. 17B, left).
(§1) FIG. 17. SEVI interacts with the HIV-1 particle and enhances its binding to the cell. A) Interaction of SEVI with HIV-1. SEVI was either preincubated with the virus stock in a small volume and subsequently added to the cells (□) or SEVI and the HIV-1 stocks were added separately to the cells (▪). The SEVI concentrations during incubation with the virus stocks are shown in the left panel and the concentrations relating to the total cell culture in the right panels. B) SEVI enhances binding of wildtype and Env-defective viral particles to the cells. u, uninfected cells. Data represent average values±s.d. (n=3).

HIV-1 = assay: Preincubation of virus stock with SEVI and 50-fold dilution into cell culture; format: cell-based; conditions: diluted 50-fold
Experimental: SEVI could bind to viral particles and increase their infectivity, or enhance the susceptibility of target cells to HIV-1 infection. To distinguish between these possibilities, we preincubated the virus stock with various concentrations of fibrilar PAP(248-286) for 5 min in a small volume and subsequently added the virus/SEVI mixture to the cell culture, thereby diluting it 50-fold. For comparison, SEVI was directly added to the cell culture and subsequently infected with the same viral dose. […] In relation to the final peptide concentration in the infected culture, viral infectivity was enhanced by 50-fold (FIG. 17A, right).
as §1

HIV-2 ROD10 = format: cell-based
SIVmac239 = format: cell-based, SIV; conditions: TZM-bl
SIVagm-tan 1 = format: cell-based, SIV; conditions: TZM-bl
HIV-1 NL4-3 [1] = assay: HIV-1 replication in PBMC after low dose infection (p24 antigen ELISA); format: cell-based; conditions: 2 μg/ml SEVI
HIV-1 NL4-3 [2] = assay: HIV-1 infection rate of CEMX174 5.25 M7 cells (GFP UV microscopy and luciferase); format: cell-based; conditions: CEMX174 5.25 M7, 0.3 ng p24, 2 days
Experimental: The rate of virus infection was detected after 2 days by performing first UV microscopy (FIG. 10A) and thereafter by measuring luciferase activities of cell lysates of the same samples (FIG. 10B). […] After infection of control samples containing no peptide, 2.6% of the cells expressed GFP corresponding to luciferase activities of 44,457 RLU/s (FIG. 10). In the presence of 2 μg/ml SEVI the average infection rates were nearly doubled to 4.6% (66,327 RLU/s). At the highest concentration of 50 μg/ml more than 99% of the cells became infected by HIV-1. Median luciferase activities in those samples were 1,701,156 RLU/s, corresponding to a 38 fold increase of infection (1,701,156 RLU/s divided by 44,457 RLU/s of control cells).
FIG. 10. […] The rate of virus infection was detected after 2 days by performing UV microscopy (A) or by measuring luciferase activity of cellular lysates (B). RLU/s: relative light units per second.

HIV-1 NL4-3 [3] = format: cell-based; conditions: for luciferase activities increased compared to control cells containing no SEVI: 50 μg/ml peptide; for effect on HIV-1 infection (luciferase activities relative to no peptide): peptides 5 mg/ml shaken 20 h 37 °C, CEMX174 5.25 M7, 30 pg p24 HIV-1 NL4-3, 20 hours
Experimental: To analyze the effect of synthesized SEVI peptides on HIV infection, samples were resuspended in FBS free DMEM to yield a stock solution of 5 mg/ml and shacked for 20 h at 37° C. at 1400 rpm (rotations per minute) resulting in a turbid solution.
All peptides indicated in FIG. 7B were dissolved and incubated under the same conditions. […] In the presence of 50 μg/ml peptide, luciferase activities were increased about 30 fold compared to those from control cells containing no SEVI (FIG. 7A).
FIG. 7. Several synthetic PAP fragments stimulate HIV-1 infection. A) Lyophilized peptides were resuspended in DMEM without FBS and incubated for 20 h at 37° C. at 1,400 rpm using a thermo mixer (Eppendorf). […] After 20 h virus infection was detected using the Luciferase assay reagent (Promega). […] B) Shown are the peptide sequences analyzed.

TZM-bl cells = assay: MTT cytotoxicity assay; format: cell-based; conditions: 3 days, high concentrations of SEVI
Experimental: The day after medium was replaced by 90 μl of fresh medium and SEVI [fibrilar […]] dilutions were added to a final volume of 100 μl. After 3 days 10 μl of a 5 mg/ml MTT (Sigma; # M2128) solution was added and cells were incubated for 4 h at 37° C. In living cells mitochondrial dehydrogenases […] the yellow MTT salt to blue formazan crystals (Schiff et al.; 1985). After dissolving the crystals in 1:1 Ethanol/DMSO, samples containing living cells appear blue whereas samples from dead cells are clear. Optical density (OD) was measured at 560/650 nm using a photometer (Molecular Devices).
FIG. 9. SEVI has no effect in cell viability or endogenous LTR activity. […] After 3 days 10 μl of a 5 mg/ml MTT solution was added and cells were incubated for 4 h at 37° C. Thereafter formazan crystals were dissolved in 1:1 Ethanol/DMSO and OD was measured at 560/650 nm. […] B) Endogenous LTR activity: After 3 days incubation with peptides endogenous LTR activity was measured using the Gal Screen Kit. Shown are median β-galactosidase activities±SD derived from 6 samples. RLU/s: relative light units per second.

[4] = system: NL4-3 V3 recombinant viruses and molecular HIV-1 clones; conditions: for infection more efficient than control cells without peptide: 0.4 μg/ml SEVI
[5] = system: HIV-1 NL4-3 (X4) and HIV-1 NL4-3 YU-2 (R5); assay: Infection of TZM-bl cells with subinfectious virus doses (Gal Screen); format: cell-based; conditions: 2 μg/ml SEVI or more, 0.1 and 0.6 pg p24 of X4 and R5 tropic HIV, 3 days

## GIHKQKEKSRLQGGVLVNEILNHMKRATQIPSYKKLIMY (Synthetic fragment of the PAP protein) [PAP(248-286)]
SIVcpz-tan 1
  effect on SIVcpz infection: favoured
HIV-1 particles
  binding of HIV-1 particles lacking Env: enhanced binding of HIV-1 particles lacking Env
HIV-1 particles; wildtype HIV-1, dose-dependent
  increase of binding of HIV-1 to the target cells (cell-associated p24): up to 8 fold
HIV-1; 5 min preincubation with virus stock
  viral infectivity enhanced in relation to the final peptide concentration in the infected culture: 50 fold
HIV-1; 5 min preincubation
  effect of diluting the HIV-1/SEVI mixture after preincubation: did not at all reduce the magnitude of SEVI-mediated infectivity enhancement
HIV-2 ROD10; 50 μg/ml SEVI, TZM-bl infected with 2 μl of HIV-2
  increase of viral infection: two orders of magnitude
HIV-2 ROD10; TZM-bl
  effect on infection rates of HIV-2: dose dependently enhanced infection rates
SIVmac239
  effect on SIVmac infection: favoured
SIVagm-tan 1
  effect on SIVagm infection: favoured
HIV-1 NL4-3 [1]; PBMC infected with 1.2 and 0.12 pg
  virus replication (p24 antigen ELISA): virus only replicated in samples containing SEVI
HIV-1 NL4-3 [1]; PBMC infected with 120 and 12 pg p24 antigen
  virus replication (p24 antigen ELISA): replicated with faster kinetics and to higher levels than in control cells without peptide
HIV-1 NL4-3 [2]
  effect on NL4-3 infection: dose dependently promoted NL4-3 infection
HIV-1 NL4-3 [3]
  luciferase activities increased compared to control cells containing no SEVI: about 30 fold
  effect on HIV-1 infection (luciferase activities relative to no peptide): dose dependently enhanced HIV-1 infection

## HKQKEKSRLQGGVLVNEILNHMKRATQIPSYKKLIMY [PAP(250-286)]
TZM-bl cells
  cell viability (MTT): not affected

## KEKSRLQGGVLVNEILNHMKRATQIPSYKKLIMY (Synthetic fragment of the PAP protein) [PAP(253-286)]
[4]; 93br025-9
  infection more efficient than control cells without peptide: 1.9 fold
[4]; HIV-1 LAI
  infection more efficient than control cells without peptide: 2.7 fold
[4]; higher concentrations, P51-S
  maximum infectivity compared to infected controls without peptide: 3,045%
HIV-1 NL4-3 [2]
  effect on NL4-3 infection: dose dependently promoted NL4-3 infection
HIV-1 NL4-3 [3]
  luciferase activities increased compared to control cells containing no SEVI: about 30 fold
  effect on HIV-1 infection (luciferase activities relative to no peptide): dose dependently enhanced HIV-1 infection

## KQKEKSRLQGGVLVNEILNHMKRATQIPSYKKLIMY (Synthetic fragment of the PAP protein) [PAP(251-286)]
[5]
  detection of infection (β-galactosidase activities): readily detectable
HIV-1 NL4-3 [2]
  effect on NL4-3 infection: dose dependently promoted NL4-3 infection
HIV-1 NL4-3 [3]
  luciferase activities increased compared to control cells containing no SEVI: about 30 fold
  effect on HIV-1 infection (luciferase activities relative to no peptide): dose dependently enhanced HIV-1 infection

## QKEKSRLQGGVLVNEILNHMKRATQIPSYKKLIMY (Synthetic fragment of the PAP protein) [PAP(252-286)]
HIV-1 NL4-3 [3]
  luciferase activities increased compared to control cells containing no SEVI: about 30 fold
  effect on HIV-1 infection (luciferase activities relative to no peptide): dose dependently enhanced HIV-1 infection
